This assay is described as follows: Epididymal fat weight and body weight, lactoferrin vs trivalent chromium vs combination (Test Example 5). The class given is in vivo, C57BL/6JNarl mice. The settings on record: fed 7 weeks; for Body weight / Epididymal fat weight: high-fat diet. The procedure:
The C57BL/6JNarl mice (N=70) are fed with a mouse diet (high-fat Rodent TestDiet, PMI Nutrition International Inc., MO, U.S.A.; 67% of calories provided by fat). The C57BL/6JNarl mice are randomly divided into seven groups and there are ten mice in each group. In one experimental group, the mice are fed with the mouse diet mixed with lactoferrin (NZMP lactoferrin, New Zealand, low dose: 40 mg/kg BW/day, high dose: 80 mg/kg BW/day). In another experimental group, the mice are fed with the mouse diet mixed with trivalent chromium (chromium (III) chloride hexahydrate, low dose: 40 μg/kg BW/day Cr^3+, high dose: 80 μg/kg BW/day Cr^3+). In yet another experimental group, the mice are fed with the mouse diet mixed with a lactoferrin/trivalent chromium composition (low dose: lactoferrin of 40 mg/kg BW/day with Cr^3+ of 40 μg/kg BW/day, high dose: lactoferrin of 80 mg/kg BW/day with Cr^3+ of 80 μg/kg BW/day). In the control group, the mice are fed with the mouse diet containing no other additive. The C57BL/6JNarl mice aged 8 weeks are fed for 7 weeks and then sacrificed to measure the weight of Epididymal fat and body weight, as shown in Table 5.
Accordingly, it can be known that the lactoferrin/trivalent chromium composition provides more significant efficiency in comparison to single lactoferrin or trivalent chromium.

Where [1] appears, read: High dose (lactoferrin 80 mg/kg BW/day and/or Cr3+ 80 μg/kg BW/day).
Where [2] appears, read: Low dose (lactoferrin 40 mg/kg BW/day and/or Cr3+ 40 μg/kg BW/day).

Take `O.O.O.O.O.O.[Cl][Cr]([Cl])[Cl]` [Trivalent Chromium, chromium (III) chloride hexahydrate]: the “Epididymal fat weight and body weight vs control group (in words)” value is listed as “cannot achieve significant efficiency”. Further, under setting [1], the Body weight is listed as 27.7 ± 1.35 g and the Epididymal fat weight is listed as 0.82 ± 0.2 g. Under setting [2], the Body weight came to 27.8 ± 1.33 g and the Epididymal fat weight amounted to 0.78 ± 0.16 g.

Source of the values: patent publication US20100009014A1, “Use of composition for manufacture of medicant and method for inhibiting formation of body fat” (Maxluck Biotechnology Corp., priority 2008, published 2010).
